Test results as given in the NIST ThermoML archive (doi:10.1021/je500513b).

Assay: mn = molality of the nth substance listed, in mol/kg
Settings: for surface tension liquid-gas: Pendant drop shape; for electrical conductivity: 100 kPa, Liquid, Mettler Toledo inLab 710

CCCCCCCCCCCC[N+](C)(C)CCCC[N+](C)(C)CCCCCCCCCCCC.[Br-].[Br-] + O
Settings	electrical conductivity [S/m]	surface tension liquid-gas [mN/m]
298.15 K, m1 = 0.0001	–	60.26
298.15 K, m1 = 0.0002	–	54.58
298.15 K, m1 = 0.0004	–	47.36
298.15 K, m1 = 0.0006	–	42.42
298.15 K, m1 = 0.0007	–	40.35
298.15 K, m1 = 0.0008	–	38.82
298.15 K, m1 = 0.00085	–	38.23
298.15 K, m1 = 0.0009	–	36.43
298.15 K, m1 = 0.001	–	35.92
298.15 K, m1 = 0.0011	–	35.45
298.15 K, m1 = 0.0012	–	35.19
298.15 K, m1 = 0.0015	–	35.13
298.15 K, m1 = 0.002	–	35.1
298.15 K, m1 = 0.56	1.13	–
298.15 K, m1 = 0.59	1.2	–
298.15 K, m1 = 0.63	1.28	–
298.15 K, m1 = 0.67	1.36	–
298.15 K, m1 = 0.7	1.42	–
298.15 K, m1 = 0.74	1.5	–
298.15 K, m1 = 0.78	1.57	–
298.15 K, m1 = 0.83	1.66	–
298.15 K, m1 = 0.87	1.73	–
298.15 K, m1 = 0.91	1.79	–
298.15 K, m1 = 0.95	1.86	–
298.15 K, m1 = 1	1.93	–
298.15 K, m1 = 1.05	2	–
298.15 K, m1 = 1.11	2.06	–
298.15 K, m1 = 1.18	2.13	–
298.15 K, m1 = 1.25	2.2	–
298.15 K, m1 = 1.33	2.25	–
298.15 K, m1 = 1.43	2.32	–
298.15 K, m1 = 1.54	2.39	–
298.15 K, m1 = 1.67	2.46	–
298.15 K, m1 = 1.82	2.53	–
298.15 K, m1 = 2	2.63	–
303.15 K, m1 = 0.57	1.32	–
303.15 K, m1 = 0.63	1.43	–
303.15 K, m1 = 0.67	1.53	–
303.15 K, m1 = 0.7	1.61	–
303.15 K, m1 = 0.74	1.69	–
303.15 K, m1 = 0.78	1.78	–
303.15 K, m1 = 0.83	1.86	–
303.15 K, m1 = 0.87	1.93	–
303.15 K, m1 = 0.91	2.01	–
303.15 K, m1 = 0.95	2.1	–
303.15 K, m1 = 1	2.18	–
303.15 K, m1 = 1.05	2.25	–
303.15 K, m1 = 1.11	2.34	–
303.15 K, m1 = 1.18	2.41	–
303.15 K, m1 = 1.25	2.47	–
303.15 K, m1 = 1.33	2.56	–
303.15 K, m1 = 1.43	2.63	–
303.15 K, m1 = 1.54	2.72	–
303.15 K, m1 = 1.67	2.8	–
303.15 K, m1 = 1.74	2.84	–
303.15 K, m1 = 2	2.99	–
308.15 K, m1 = 0.56	1.42	–
308.15 K, m1 = 0.59	1.5	–
308.15 K, m1 = 0.63	1.59	–
308.15 K, m1 = 0.67	1.69	–
308.15 K, m1 = 0.7	1.76	–
308.15 K, m1 = 0.74	1.85	–
308.15 K, m1 = 0.78	1.95	–
308.15 K, m1 = 0.83	2.06	–
308.15 K, m1 = 0.87	2.14	–
308.15 K, m1 = 0.91	2.22	–
308.15 K, m1 = 0.95	2.32	–
308.15 K, m1 = 1	2.41	–
308.15 K, m1 = 1.05	2.51	–
308.15 K, m1 = 1.11	2.62	–
308.15 K, m1 = 1.18	2.71	–
308.15 K, m1 = 1.25	2.8	–
308.15 K, m1 = 1.33	2.9	–
308.15 K, m1 = 1.43	2.98	–
308.15 K, m1 = 1.54	3.08	–
308.15 K, m1 = 1.67	3.16	–
308.15 K, m1 = 1.82	3.27	–
308.15 K, m1 = 2	3.39	–
313.15 K, m1 = 0.62	1.66	–
313.15 K, m1 = 0.66	1.78	–
313.15 K, m1 = 0.7	1.91	–
313.15 K, m1 = 0.74	2	–
313.15 K, m1 = 0.78	2.12	–
313.15 K, m1 = 0.83	2.24	–
313.15 K, m1 = 0.89	2.38	–
313.15 K, m1 = 0.95	2.54	–
313.15 K, m1 = 1	2.64	–
313.15 K, m1 = 1.05	2.76	–
313.15 K, m1 = 1.11	2.87	–
313.15 K, m1 = 1.18	3.01	–
313.15 K, m1 = 1.25	3.13	–
313.15 K, m1 = 1.33	3.24	–
313.15 K, m1 = 1.43	3.34	–
313.15 K, m1 = 1.54	3.46	–
313.15 K, m1 = 1.67	3.58	–
313.15 K, m1 = 1.74	3.64	–
313.15 K, m1 = 1.82	3.7	–
313.15 K, m1 = 1.9	3.77	–
313.15 K, m1 = 2	3.84	–
318.15 K, m1 = 0.61	1.79	–
318.15 K, m1 = 0.65	1.91	–
318.15 K, m1 = 0.69	2.05	–
318.15 K, m1 = 0.74	2.19	–
318.15 K, m1 = 0.78	2.33	–
318.15 K, m1 = 0.83	2.45	–
318.15 K, m1 = 0.89	2.61	–
318.15 K, m1 = 0.95	2.78	–
318.15 K, m1 = 1	2.9	–
318.15 K, m1 = 1.05	3.04	–
318.15 K, m1 = 1.11	3.18	–
318.15 K, m1 = 1.18	3.33	–
318.15 K, m1 = 1.25	3.47	–
318.15 K, m1 = 1.33	3.61	–
318.15 K, m1 = 1.43	3.76	–
318.15 K, m1 = 1.54	3.91	–
318.15 K, m1 = 1.67	4.04	–
318.15 K, m1 = 1.74	4.11	–
318.15 K, m1 = 1.82	4.19	–
318.15 K, m1 = 1.9	4.26	–
318.15 K, m1 = 2	4.32	–
323.15 K, m1 = 0.57	1.86	–
323.15 K, m1 = 0.61	1.97	–
323.15 K, m1 = 0.65	2.09	–
323.15 K, m1 = 0.69	2.24	–
323.15 K, m1 = 0.74	2.4	–
323.15 K, m1 = 0.78	2.55	–
323.15 K, m1 = 0.83	2.72	–
323.15 K, m1 = 0.89	2.87	–
323.15 K, m1 = 0.95	3.03	–
323.15 K, m1 = 1	3.16	–
323.15 K, m1 = 1.05	3.31	–
323.15 K, m1 = 1.11	3.47	–
323.15 K, m1 = 1.18	3.66	–
323.15 K, m1 = 1.25	3.84	–
323.15 K, m1 = 1.33	4.03	–
323.15 K, m1 = 1.43	4.21	–
323.15 K, m1 = 1.54	4.38	–
323.15 K, m1 = 1.6	4.48	–
323.15 K, m1 = 1.67	4.57	–
323.15 K, m1 = 1.74	4.65	–
323.15 K, m1 = 1.82	4.73	–
323.15 K, m1 = 1.9	4.81	–
323.15 K, m1 = 2	4.89	–

O [water] + CCCCCCCCCCCCCC[N+](C)(C)CCCCCC[N+](C)(C)CCCCCCCCCCCCCC.[Br-].[Br-]
Settings	surface tension liquid-gas [mN/m]
298.15 K, m2 = 0	71.98

O [water] + CCCCCCCCCCCCCC[N+](C)(C)CCCC[N+](C)(C)CCCCCCCCCCCCCC.[Br-].[Br-]
Settings	surface tension liquid-gas [mN/m]
298.15 K, m2 = 0	71.98

O [water] + CCCCCCCCCCCCCC[N+](C)(C)CCC[N+](C)(C)CCCCCCCCCCCCCC.[Br-].[Br-]
Settings	surface tension liquid-gas [mN/m]
298.15 K, m2 = 0	71.98

O [water] + CCCCCCCCCCCC[N+](C)(C)CCCCCC[N+](C)(C)CCCCCCCCCCCC.[Br-].[Br-]
Settings	surface tension liquid-gas [mN/m]
298.15 K, m2 = 0	71.98

O [water] + CCCCCCCCCCCC[N+](C)(C)CCCC[N+](C)(C)CCCCCCCCCCCC.[Br-].[Br-]
Settings	surface tension liquid-gas [mN/m]
298.15 K, m2 = 0	71.98

O [water] + CCCCCCCCCCCC[N+](C)(C)CCC[N+](C)(C)CCCCCCCCCCCC.[Br-].[Br-]
Settings	surface tension liquid-gas [mN/m]
298.15 K, m2 = 0	71.98
